Biological target: T1, HTR6 (Homo sapiens, UniProt P50406)
T1 construct: purchased Promega (in-house HiBiT-GPCR construct library, NanoBRET)
Experiment: NanoBRET screen HiBiT-HTR6 in HEK293
Assay type: binding
Protocol: Each tracer candidate was screened across the entire library of HiBiT-GPCR constructs using NanoBRET as the detection modality. As depicted in Figure 4A, the specificity of interactions was evaluated through decrease in BRET due to competitive displacement of a bound tracer by excess parental compound. Each tracer was analyzed for binding to each HiBiT-GPCR fusion in the absence and in the presence of competing parental compound. Briefly, HEK293 cells were transfected with HiBiT-GPCR constructs diluted into promoterless DNA to reduce expression and maximize translocation to the cell surface. Each tracer candidate was then screened at concentrations of 1 μM and 0.1 μM across cells expressing these fusions. Cells were treated for 1.5 h with tracer either alone or in the presence of 20 μM competing parental compound (i.e., control). BRET was measured upon addition of purified LgBiT and subsequent complementation with HiBiT genetically fused to a GPCR. The specificity of interactions was assessed through a decrease in BRET signal due to competitive displacement of the bound tracer. To further gauge the robustness of these interactions, the fold response over the control (i.e., BRETtracer/BRETcontrol) was calculated. We chose a 1.5-fold response, which translates to ≥7-fold signal over noise as the minimal threshold required to score an interaction as positive.
HiBiT-GPCR DNA constructs were diluted in 10 mM Tris pH 8 to a final concentration of 0.01 μg/μL, arrayed in 96-well plates and stored at −20 °C. For transfection, HEK293 cells were suspended in Opti-MEM (without phenol red) supplemented with 2% fetal bovine serum (Seradigm) and 100 units/mL penicillin–streptomycin (Gibco) at a final concentration of 220,000 cells/mL and dispensed into white 96-well plates at 90 μL/well. Subsequent transfections and screens were carried using an Agilent Bravo Automated Liquid Handling Platform. First, the 96-well HiBiT DNA arrays were diluted 25-fold in Opti-MEM (without serum or phenol red) to a final concentration of 0.0004 μg/μL and 20 μL of the diluted DNAs were transferred into new 96-well plates. Next, promoterless carrier DNA (1 μg/μL) was diluted 25-fold (0.04 μg/μL) and then dispensed into the diluted arrays at 20 μL/well. Following brief mixing, Viafect transfection reagent (Promega) diluted 16-fold into Opti-MEM was dispensed into the plates at 40 μL/well. After mixing by pipetting, plates were incubated for 10 min on the pipetting station deck. The DNA-transfection reagent complexes were then added to plates containing cells. To facilitate the screen, 10 μL of DNA-transfection reagent complexes were added in duplicates to the top 4 and bottom 4 rows, resulting in two identical 48-well arrays per plate. Plates with transfected cells were incubated for 18–20 h at 37 °C/5% CO2. A screen of each tracer across the entire library using two different concentrations requires duplicate plates of transfected cells. Depending on the number of tracers being screened, transfections can be scaled up using the same ratios. The next day, for each tracer, four 20× screening solutions in tracer dilution buffer (Promega) were prepared: two duplicates at final concentration of 20 μM and two duplicates at a final concentration of 2 μM. […] The four resulting solutions were diluted 4-fold in Opti-MEM without serum or phenol red to generate 5× solutions (5 µM and 0.5 µM tracer +/− 100 μM competing compound). To screen the library, a BioTek MultiFlo FX liquid dispenser was used to dispense 22.5 µL of tracer solution to the top 4 rows and 22.5 µL tracer + competing compound solution to the 4 bottom rows. Plates were briefly mixed on an orbital shaker and incubated for 1.5 h at room temperature. […] Plates were briefly mixed on an orbital shaker and incubated for 15 min to allow complementation.

T1 sequence (P50406 whole entry): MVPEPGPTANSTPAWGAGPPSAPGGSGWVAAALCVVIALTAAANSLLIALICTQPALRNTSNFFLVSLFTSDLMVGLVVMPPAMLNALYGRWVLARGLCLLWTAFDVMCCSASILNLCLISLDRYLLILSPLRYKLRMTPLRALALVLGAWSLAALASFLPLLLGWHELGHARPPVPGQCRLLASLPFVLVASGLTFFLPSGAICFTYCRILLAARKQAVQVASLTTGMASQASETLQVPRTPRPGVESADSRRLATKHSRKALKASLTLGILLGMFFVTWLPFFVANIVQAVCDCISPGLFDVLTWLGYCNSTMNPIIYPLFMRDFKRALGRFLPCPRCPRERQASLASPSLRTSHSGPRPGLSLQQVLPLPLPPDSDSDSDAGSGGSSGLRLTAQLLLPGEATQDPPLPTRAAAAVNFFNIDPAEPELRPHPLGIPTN

| Structure (SMILES) | NanoBRET Fold Response (HTR6, tracer 0.1μM) | NanoBRET Fold Response (HTR6, tracer 1μM) | other results |
| --- | --- | --- | --- |
| O=C(CCc1ccc2n1[B-](F)(F)[N+]1=C(c3ccc[nH]3)C=CC1=C2)NCc1ccc(C(=O)NCCOCCC(=O)N[C@@H]2CC[C@@]3(O)[C@H]4Cc5ccc(O)c6c5[C@@]3(CCN4CC3CC3)[C@H]2O6)cc1 [Naltrexone-3-NB590] | 0.77 | 0.95 | – |
| CCCn1c(=O)c2[nH]c(-c3ccc(OCC(=O)NCCNC(=O)CCOCCNC(=O)c4ccc(CNC(=O)CCc5ccc6n5[B-](F)(F)[N+]5=C(c7ccc[nH]7)C=CC5=C6)cc4)cc3)nc2n(CCC)c1=O [XAC-3-NB590] | 0.97 | 0.93 | – |
| CC(C)N(CC[C@H](c1ccccc1)c1cc(CCNC(=O)c2ccc(CNC(=O)CCc3ccc4n3[B-](F)(F)[N+]3=C(c5ccc[nH]5)C=CC3=C4)cc2)ccc1O)C(C)C [Tolterodine-BZ-NB590] | 0.96 | 1.05 | – |
| N#CN/C(=N\CCNC(=O)c1ccc(N)cc1)NCCCOc1cccc(CN2CCCCC2)c1 [Aminopotentidine (unmodified)] | – | – | NanoBRET Fold Response (HTR6, other tracers/Aminopotentidine (unmodified), 0.1μM): 1.03; NanoBRET Fold Response (HTR6, other tracers/Aminopotentidine (unmodified), 1μM): 1.38 |
| COc1ccc2[nH]c(-c3ccc(CNC(=O)CCOCCOCCOCCOCCNC(=O)CCc4ccc5n4[B-](F)(F)[N+]4=C(c6ccc[nH]6)C=CC4=C5)cc3)c(CCNC(C)=O)c2n1 [AzomelatoninICO9-2-NB590] | – | – | NanoBRET Fold Response (0.1μM tracer): 0.97; NanoBRET Fold Response (1μM tracer): 0.95 |
| COc1ccccc1N1CCN(CCCCN2C(=O)c3ccc(CNC(=O)CCOCCNC(=O)c4ccc(CNC(=O)CCc5ccc6n5[B-](F)(F)[N+]5=C(c7ccc[nH]7)C=CC5=C6)cc4)cc3C2=O)CC1 [NAN-190-3-NB590] | 0.94 | 1.19 | – |
| Cc1nc2n(c(=O)c1CCN1CCC(c3noc4cc(F)ccc34)CC1)CCCC2OC(=O)NCCOCCOCCOCCOCCNC(=O)CCc1ccc2n1[B-](F)(F)[N+]1=C(c3ccc[nH]3)C=CC1=C2 (stereo not drawn) [Risperidone-2-NB590] | 1.00 | 1.34 | – |
| O=C(CCOCCOCCOCCOCCNC(=O)CCc1ccc2n1[B-](F)(F)[N+]1=C(c3ccc[nH]3)C=CC1=C2)NCCCN1CCN(C2=Nc3ccccc3Oc3ccc(Cl)cc32)CC1 [Loxapine-a-2-NB590] | 1.04 | 1.21 | – |
| COc1ccccc1N1CCN(CCCCN2C(=O)c3ccc(CNC(=O)CCOCCOCCOCCOCCNC(=O)CCc4ccc5n4[B-](F)(F)[N+]4=C(c6ccc[nH]6)C=CC4=C5)cc3C2=O)CC1 [NAN-190-2-NB590] | 0.99 | 1.04 | – |
| CC(C)N(CC[C@H](c1ccccc1)c1cc(CCNC(=O)CCOCCOCCOCCOCCNC(=O)CCc2ccc3n2[B-](F)(F)[N+]2=C(c4ccc[nH]4)C=CC2=C3)ccc1O)C(C)C [Tolterodine-2-NB590] | 0.89 | 0.96 | – |
| N#CN=C(NCCCOc1cccc(CN2CCCCC2)c1)NCCNC(=O)CCOCCOCCOCCOCCNC(=O)CCc1ccc2n1[B-](F)(F)[N+]1=C(c3ccc[nH]3)C=CC1=C2 [Aminopotentidine-2-NB590] | 0.99 | 1.03 | – |
| CCOC(=O)c1cc(C#N)c(N2CCC(C(=O)NS(=O)(=O)Cc3ccccc3/C=C/C(=O)NCCNC(=O)CCc3ccc4n3[B-](F)(F)[N+]3=C(c5ccc[nH]5)C=CC3=C4)CC2)nc1C [AZD1283-1-NB590] | – | – | NanoBRET Fold Response (HTR6, 0.1μM): 1.05; NanoBRET Fold Response (HTR6, 1μM): 1.07 |
| CN(C)CCC=C1c2ccccc2CCc2ccc(C(=O)NCCNC(=O)CCOCCOCCOCCOCCNC(=O)CCc3ccc4n3[B-](F)(F)[N+]3=C(c5ccc[nH]5)C=CC3=C4)cc21 [Amitriptyline-b-2-NB590] | – | – | NanoBRET Fold Response (tracer at 0.1μM, listed as amitriptyline-b-2-NB590): 1.11; NanoBRET Fold Response (tracer at 1μM, listed as amitriptyline-b-2-NB590): 1.11 |
| CN(C)CCC=C1c2ccccc2CCc2ccc(C(=O)NCCNC(=O)CCOCCOCCOCCOCCNC(=O)CCc3ccc4n3[B-](F)(F)[N+]3=C(c5ccc[nH]5)C=CC3=C4)cc21 [Amitriptyline-a-2-NB590] | – | – | NanoBRET Fold Response (tracer at 0.1μM): 0.98; NanoBRET Fold Response (tracer at 1μM): 0.97 |
| O=C(CCc1ccc2n1[B-](F)(F)[N+]1=C(c3ccc[nH]3)C=CC1=C2)NCCOCCOCCNC(=O)OCCOCCN1CCN(C2=Nc3ccccc3Sc3ccccc32)CC1 [Quetiapine-a-2-NB590] | 0.90 | 0.98 | – |
| Cc1cc2c(s1)Nc1ccccc1N=C2N1CCN(CCCNC(=O)CCOCCOCCOCCOCCNC(=O)CCc2ccc3n2[B-](F)(F)[N+]2=C(c4ccc[nH]4)C=CC2=C3)CC1 [Olanzapine-a-2-NB590] | 1.09 | 1.15 | – |
| COc1ccc2c(n1)c(CCNC(C)=O)cn2CCNC(=O)CCc1ccc2n1[B-](F)(F)[N+]1=C(c3ccc[nH]3)C=CC1=C2 [Azamelatonin-1-NB590] | – | – | NanoBRET Fold Response (0.1μM tracer): 0.87; NanoBRET Fold Response (1μM tracer): 0.87 |
| CN(CCC=C1c2ccccc2CCc2ccccc21)C(=O)CCOCCOCCOCCOCCNC(=O)CCc1ccc2n1[B-](F)(F)[N+]1=C(c3ccc[nH]3)C=CC1=C2 [Amitriptyline-e-2-NB590] | – | – | NanoBRET Fold Response (tracer at 1μM): 1.01 |
| O=C(CCc1ccc2n1[B-](F)(F)[N+]1=C(c3ccc[nH]3)C=CC1=C2)NCc1ccc(C(=O)NCCOCCOCCNCC(O)COc2cccc3ccccc23)cc1 (stereo not drawn) [Propranolol-3-NB590] | – | – | NanoBRET Fold Response (HTR6, 0.1μM): 1.10; NanoBRET Fold Response (HTR6, 1μM): 1.14 |
| O=C(CCOCCOCCOCCOCCNC(=O)CCc1ccc2n1[B-](F)(F)[N+]1=C(c3ccc[nH]3)C=CC1=C2)NCCCN1CCN(C2=Nc3cc(Cl)ccc3Nc3ccccc32)CC1 [Clozapine-a-2-NB590] | – | – | NanoBRET Fold Response (HTR6, 0.1μM tracer): 1.49; NanoBRET Fold Response (HTR6, 1μM tracer): 2.05 |
